Key:
NAMPT [1] = target: T1, NAMPT (Homo sapiens, UniProt P43490); assay: Time-Resolved Fluorescence Resonance Energy Transfer (TR-FRET) Binding Assay of NAMPT; settings: 6.8 nM NAMPT, 200 nM probe, equilibrated 3 hours, no substrates
In short: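 IC50s come from four-parameter logistic fits of control-normalized Em520/Em495 TR-FRET ratios (Ex 337 nm) against compound concentration. Before reading, enzyme, probe, antibody and compound equilibrated for 3 h at room temperature.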

NAMPT [2] = target: T1, NAMPT; assay: TR-FRET Binding Assay of NAMPT with PRPP; settings: 2 nM NAMPT, 2 nM probe, 200 µM PRPP and 2.5 mM ATP, equilibrated 16 hours
Experimental: Time-Resolved Fluorescence Resonance Energy Transfer (TR-FRET) Binding Assay of NAMPT with PRPP
Compound handling and data processing were identical to the assay in the absence of substrates (above). Final concentrations were 1× assay buffer, 2% DMSO, 2 nM NAMPT, 2 nM probe, 1 nM Tb-anti-His antibody (Invitrogen #PV5895), 200 µM PRPP and 2.5 mM ATP. Reactions were equilibrated for 16 hours prior to measurement to allow for potential enzymatic modification of test compounds.

PC3 cells = assay: NAMPT Cell Proliferation Assay (Cell Titer Glo); type: cell-based; settings: Homo sapiens, PC-3, 120 h, incubated 5 days, cell viability
In short: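 Viability measured by Cell Titer Glo luminescence after 5-day exposure of attached PC3 cells to compound, dosed as 10-fold serial dilutions ([…]) in RPMI/10% FBS at 37 °C and 5% CO2. Percent inhibition fitted to sigmoidal dose-response curves for IC50.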

T1 sequence (P43490 whole entry): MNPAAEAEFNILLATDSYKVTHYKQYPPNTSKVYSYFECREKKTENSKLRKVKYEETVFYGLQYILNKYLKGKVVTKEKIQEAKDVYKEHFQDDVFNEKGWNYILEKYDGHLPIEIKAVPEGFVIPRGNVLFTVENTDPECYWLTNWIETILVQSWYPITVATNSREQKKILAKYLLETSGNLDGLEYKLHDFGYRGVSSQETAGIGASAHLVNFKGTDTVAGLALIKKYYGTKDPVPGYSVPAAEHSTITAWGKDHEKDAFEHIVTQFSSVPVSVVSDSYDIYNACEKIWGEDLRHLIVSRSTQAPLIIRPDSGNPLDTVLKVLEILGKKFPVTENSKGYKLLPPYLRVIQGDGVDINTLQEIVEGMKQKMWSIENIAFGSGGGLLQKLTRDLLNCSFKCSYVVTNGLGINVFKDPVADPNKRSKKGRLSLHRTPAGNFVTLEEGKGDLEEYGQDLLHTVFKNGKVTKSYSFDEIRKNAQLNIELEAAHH

CC[C@H](C)C(=O)N1CC(Oc2ccc(NC(=O)N3CC(c4cccnc4)C3)cc2)C1 [Example 1, N-[4-({1-[(2S)-2-methylbutanoyl]azetidin-3-yl}oxy)phenyl]-3-(pyridin-3-yl)azetidine-1-carboxamide]
IC50 (NAMPT [1]): 24.9 nM
IC50 (NAMPT [2]): 0.873 nM
IC50 (PC3 cells): 11.7 nM

O=C(CC1CCOCC1)N1CCC(Oc2ccc(NC(=O)N3CC(c4cccnc4)C3)cc2)CC1 [Example 2, 3-(pyridin-3-yl)-N-(4-{[1-(tetrahydro-2H-pyran-4-ylacetyl)piperidin-4-yl]oxy}phenyl)azetidine-1-carboxamide]
IC50 (NAMPT [1]): 125 nM
IC50 (NAMPT [2]): 0.37 nM
IC50 (PC3 cells): 34.9 nM

O=C(CC1CCOCC1)N1CCC(Oc2ccc(NC(=O)N3CC(c4cncc(F)c4)C3)cc2)CC1 [Example 3, 3-(5-fluoropyridin-3-yl)-N-(4-{[1-(tetrahydro-2H-pyran-4-ylacetyl)piperidin-4-yl]oxy}phenyl)azetidine-1-carboxamide]
IC50 (NAMPT [1]): 1220 nM
IC50 (NAMPT [2]): 7.64 nM
IC50 (PC3 cells): 4680 nM

CC[C@H](C)C(=O)N1CCC(Oc2ccc(NC(=O)N3CC(c4cccnc4)C3)cc2)CC1 [Example 4, N-[4-({1-[(2S)-2-methylbutanoyl]piperidin-4-yl}oxy)phenyl]-3-(pyridin-3-yl)azetidine-1-carboxamide]
IC50 (NAMPT [1]): 19.7 nM
IC50 (NAMPT [2]): 0.195 nM
IC50 (PC3 cells): 14 nM

O=C(CC(F)(F)F)N1CCC(Oc2ccc(NC(=O)N3CC(c4cccnc4)C3)cc2)CC1 [Example 6, 3-(pyridin-3-yl)-N-(4-{[1-(3,3,3-trifluoropropanoyl)piperidin-4-yl]oxy}phenyl)azetidine-1-carboxamide]
IC50 (NAMPT [1]): 53.4 nM
IC50 (NAMPT [2]): 0.224 nM
IC50 (PC3 cells): 30.6 nM

CC(C)(O)C(=O)N1CCC(Oc2ccc(NC(=O)N3CC(c4cccnc4)C3)cc2)CC1 [Example 7, N-(4-{[1-(2-hydroxy-2-methylpropanoyl)piperidin-4-yl]oxy}phenyl)-3-(pyridin-3-yl)azetidine-1-carboxamide]
IC50 (NAMPT [1]): 57.8 nM
IC50 (NAMPT [2]): 0.344 nM
IC50 (PC3 cells): 38.5 nM

Cc1ccc(C2CN(C(=O)Nc3ccc(OC4CCN(C(=O)CC5CCOCC5)CC4)cc3)C2)cn1 [Example 8, 3-(6-methylpyridin-3-yl)-N-(4-{[1-(tetrahydro-2H-pyran-4-ylacetyl)piperidin-4-yl]oxy}phenyl)azetidine-1-carboxamide]
IC50 (NAMPT [1]): 617 nM
IC50 (NAMPT [2]): 15.4 nM
IC50 (PC3 cells): 7030 nM

CC[C@H](C)C(=O)N1CC=C(c2ccc(NC(=O)N3CC(c4cccnc4)C3)cc2)CC1 [Example 9, N-(4-{1-[(2S)-2-methylbutanoyl]-1,2,3,6-tetrahydropyridin-4-yl}phenyl)-3-(pyridin-3-yl)azetidine-1-carboxamide]
IC50 (NAMPT [1]): 16.3 nM
IC50 (NAMPT [2]): 0.346 nM
IC50 (PC3 cells): 6.82 nM

O=C(Nc1ccc(C2=CCN(C(=O)[C@H]3CCCO3)CC2)cc1)N1CC(c2cccnc2)C1 [Example 10, 3-(pyridine-3-yl)-N-(4-{1-[(2R)-tetrahydrofuran-2-ylcarbonyl]-1,2,3,6-tetrahydropyridin-4-yl}phenyl)azetidine-1-carboxamide]
IC50 (NAMPT [1]): 41.5 nM
IC50 (NAMPT [2]): 0.25 nM
IC50 (PC3 cells): 38.9 nM

O=C(Nc1ccc(C2=CCN(C(=O)[C@@H]3CCCO3)CC2)cc1)N1CC(c2cccnc2)C1 [Example 11, 3-(pyridine-3-yl)-N-(4-{1-[(2S)-tetrahydrofuran-2-ylcarbonyl]-1,2,3,6-tetrahydropyridin-4-yl}phenyl)azetidine-1-carboxamide]
IC50 (NAMPT [1]): 15.8 nM
IC50 (NAMPT [2]): 0.32 nM
IC50 (PC3 cells): 9.33 nM

CC(C)(O)C(=O)N1CC=C(c2ccc(NC(=O)N3CC(c4cccnc4)C3)cc2)CC1 [Example 12, N-{4-[1-(2-hydroxy-2-methylpropanoyl)-1,2,3,6-tetrahydropyridin-4-yl]phenyl}-3-(pyridin-3-yl)azetidine-1-carboxamide]
IC50 (NAMPT [1]): 32.1 nM
IC50 (NAMPT [2]): 0.43 nM
IC50 (PC3 cells): 10.1 nM

COC(=O)c1ccc(NC(=O)N2CC(c3cccnc3)C2)cc1 [Example 13, methyl 4-({[3-(pyridin-3-yl)azetidin-1-yl]carbonyl}amino)benzoate]
IC50 (NAMPT [1]): 201 nM
IC50 (NAMPT [2]): 0.374 nM
IC50 (PC3 cells): 514 nM

N#Cc1ccc(NC(=O)N2CC(c3cccnc3)C2)cc1 [Example 14, N-(4-cyanophenyl)-3-(pyridin-3-yl)azetidine-1-carboxamide]
IC50 (NAMPT [1]): 879 nM
IC50 (NAMPT [2]): 0.178 nM
IC50 (PC3 cells): 6680 nM

CC(C)(C)OC(=O)N1CCC(CCCCNC(=O)N2CC(c3cccnc3)C2)CC1 [Example 15, tert-butyl 4-[4-({[3-(pyridin-3-yl)azetidin-1-yl]carbonyl}amino)butyl]piperidine-1-carboxylate]
IC50 (NAMPT [1]): 307 nM
IC50 (NAMPT [2]): 0.917 nM
IC50 (PC3 cells): 99.9 nM

CC(C)(C)CC(=O)N1CC=C(c2ccc(NC(=O)N3CC(c4cccnc4)C3)cc2)CC1 [Example 17, N-{4-[1-(3,3-dimethylbutanoyl)-1,2,3,6-tetrahydropyridin-4-yl]phenyl}-3-(pyridin-3-yl)azetidine-1-carboxamide]
IC50 (NAMPT [1]): 16.9 nM
IC50 (NAMPT [2]): 0.568 nM
IC50 (PC3 cells): 36.8 nM

O=C(CC(F)(F)F)N1CC=C(c2ccc(NC(=O)N3CC(c4cccnc4)C3)cc2)CC1 [Example 18, 3-(pyridin-3-yl)-N-{4-[1-(3,3,3-trifluoropropanoyl)-1,2,3,6-tetrahydropyridin-4-yl]phenyl}azetidine-1-carboxamide]
IC50 (NAMPT [1]): 36.7 nM
IC50 (NAMPT [2]): 0.294 nM
IC50 (PC3 cells): 65.8 nM

O=C(CCC(F)(F)F)N1CC=C(c2ccc(NC(=O)N3CC(c4cccnc4)C3)cc2)CC1 [Example 19, 3-(pyridin-3-yl)-N-{4-[1-(4,4,4-trifluorobutanoyl)-1,2,3,6-tetrahydropyridin-4-yl]phenyl}azetidine-1-carboxamide]
IC50 (NAMPT [1]): 153 nM
IC50 (NAMPT [2]): 0.86 nM
IC50 (PC3 cells): 192 nM

COCC(=O)N1CC=C(c2ccc(NC(=O)N3CC(c4cccnc4)C3)cc2)CC1 [Example 20, N-{4-[1-(methoxyacetyl)-1,2,3,6-tetrahydropyridin-4-yl]phenyl}-3-(pyridin-3-yl)azetidine-1-carboxamide]
IC50 (NAMPT [1]): 68.4 nM
IC50 (NAMPT [2]): 0.5 nM
IC50 (PC3 cells): 123 nM

CSCC(=O)N1CC=C(c2ccc(NC(=O)N3CC(c4cccnc4)C3)cc2)CC1 [Example 21, N-(4-{1-[(methylsulfanyl)acetyl]-1,2,3,6-tetrahydropyridin-4-yl}phenyl)-3-(pyridin-3-yl)azetidine-1-carboxamide]
IC50 (NAMPT [1]): 32.5 nM
IC50 (NAMPT [2]): 0.381 nM
IC50 (PC3 cells): 33.7 nM

CCOCC(=O)N1CC=C(c2ccc(NC(=O)N3CC(c4cccnc4)C3)cc2)CC1 [Example 22, N-{4-[1-(ethoxyacetyl)-1,2,3,6-tetrahydropyridin-4-yl]phenyl}-3-(pyridin-3-yl)azetidine-1-carboxamide]
IC50 (NAMPT [1]): 143 nM
IC50 (NAMPT [2]): 0.63 nM
IC50 (PC3 cells): 276 nM

COCCOCC(=O)N1CC=C(c2ccc(NC(=O)N3CC(c4cccnc4)C3)cc2)CC1 [Example 23, N-(4-{1-[(2-methoxyethoxy)acetyl]-1,2,3,6-tetrahydropyridin-4-yl}phenyl)-3-(pyridin-3-yl)azetidine-1-carboxamide]
IC50 (NAMPT [1]): 97.8 nM
IC50 (NAMPT [2]): 0.551 nM
IC50 (PC3 cells): 195 nM

CSCCC(=O)N1CC=C(c2ccc(NC(=O)N3CC(c4cccnc4)C3)cc2)CC1 [Example 24, N-(4-{1-[3-(methylsulfanyl)propanoyl]-1,2,3,6-tetrahydropyridin-4-yl}phenyl)-3-(pyridin-3-yl)azetidine-1-carboxamide]
IC50 (NAMPT [1]): 170 nM
IC50 (NAMPT [2]): 0.988 nM
IC50 (PC3 cells): 113 nM

O=C(Nc1ccc(C2=CCN(C(=O)C3CC3)CC2)cc1)N1CC(c2cccnc2)C1 [Example 25, N-{4-[1-(cyclopropylcarbonyl)-1,2,3,6-tetrahydropyridin-4-yl]phenyl}-3-(pyridin-3-yl)azetidine-1-carboxamide]
IC50 (NAMPT [1]): 37.4 nM
IC50 (NAMPT [2]): 0.362 nM
IC50 (PC3 cells): 27.1 nM

CCCCN1CCC(c2ccc(NC(=O)N3CC(c4cccnc4)C3)cc2)CC1 [Example 240, N-[4-(1-butylpiperidin-4-yl)phenyl]-3-(pyridin-3-yl)azetidine-1-carboxamide]
IC50 (NAMPT [1]): 603 nM
IC50 (NAMPT [2]): 0.466 nM

O=C(Nc1ccc(C2CCN(CCC3CC3)CC2)cc1)N1CC(c2cccnc2)C1 [Example 242, N-{4-[1-(2-cyclopropylethyl)piperidin-4-yl]phenyl}-3-(pyridin-3-yl)azetidine-1-carboxamide]
IC50 (NAMPT [1]): 374 nM
IC50 (NAMPT [2]): 0.225 nM

CCC(C)(C)CN1CCC(c2ccc(NC(=O)N3CC(c4cccnc4)C3)cc2)CC1 [Example 244, N-{4-[1-(2,2-dimethylbutyl)piperidin-4-yl]phenyl}-3-(pyridin-3-yl)azetidine-1-carboxamide]
IC50 (NAMPT [1]): 1170 nM
IC50 (NAMPT [2]): 0.516 nM

CC(C)(C)CN1CC(c2ccc(NC(=O)N3CC(c4cccnc4)C3)cc2)C1 [Example 254, N-{4-[1-(2,2-dimethylpropyl)azetidin-3-yl]phenyl}-3-(pyridin-3-yl)azetidine-1-carboxamide]
IC50 (NAMPT [1]): 246 nM
IC50 (NAMPT [2]): 0.174 nM

CCC(C)(C)CN1CC(c2ccc(NC(=O)N3CC(c4cccnc4)C3)cc2)C1 [Example 257, N-{4-[1-(2,2-dimethylbutyl)azetidin-3-yl]phenyl}-3-(pyridin-3-yl)azetidine-1-carboxamide]
IC50 (NAMPT [1]): 598 nM
IC50 (NAMPT [2]): 0.223 nM
